Measurements from publication PMC9203742 (Nature Communications, 2022).
pEC50: −log10 of the molar value. Values joined by “and” are separate entries in the source; they are usually repeats but may differ in a detail not shown here. Equal values may be shown once. Starred links: 1 amine or outer side, 2 acyl side, 3 side chain; linkers in the order of their positions; H or OH if unused. Positions of bridges follow the written chain, without caps; N, C: chain ends. Non-standard residues stand in square brackets, D forms with d. Residues, ends and D or L forms follow the SMILES beside them. X1 = CC(=O)NC(C(=O)OC(C(C)C)C(N[*:1])C(=O)[*:2])C(O)C(C)C; PhLac = O=C(O)[CH](O)Cc1ccccc1; NMeT = CN[CH](C(=O)O)[CH](C)O; NMeA = CN[CH](C)C(=O)O; NMeDha = C=C(NC)C(=O)O

Columns and labels:
mGlu1(N264H) mutant = biological target: T1, mGlu1(N264H) mutant (Rattus norvegicus, UniProt P23385, N264H); experiment: Fura-2 Ca2+ imaging in HEK293 cells expressing mGlu1(N264H); assay type: cell-based; conditions: for Effect of pre-treated inhibitor on 10 µM Pd(bpy)-induced Ca2+ responses: 10 µM LY367385, 1 µM FITM, 10 µM YM254890 or 1 µM U73122; for Receptor activation (Ca2+ response, Δratio): 3 μM Pd(bpy) derivative; for Ca2+ response to Pd complex, individual cells #1-#20 (Fig.4e): single-cell values
T1 construct: expressed in transfected cells; host or cells: HEK293

primary cortical neurons = experiment: Fura-2 Ca2+ imaging (abnormal Ca2+ response) in cultured cortical neurons; conditions: co-treated 30 µM LY367385, 1 µM FITM or 10 µM U73122
mGlu1 K61H/N264H mutant = biological target: T2, mGlu1 K61H/N264H mutant (Rattus norvegicus, UniProt P23385, K61H/N264H); experiment: Fura-2 Ca2+ imaging in HEK293 cells expressing mGlu1 K61H/N264H; assay type: cell-based; conditions: 10 μM metal ion or metal complex
T2 construct: expressed in transfected cells; host or cells: HEK293

mGlu1 A59H/N264H mutant = biological target: T3, mGlu1 A59H/N264H mutant (Rattus norvegicus, UniProt P23385, A59H/N264H); experiment: Fura-2 Ca2+ imaging in HEK293 cells expressing mGlu1 A59H/N264H; assay type: cell-based; conditions: 10 μM metal ion or metal complex
T3 construct: expressed in transfected cells; host or cells: HEK293

mGlu1 E60H/N264H mutant = biological target: T4, mGlu1 E60H/N264H mutant (Rattus norvegicus, UniProt P23385, E60H/N264H); experiment: Fura-2 Ca2+ imaging in HEK293 cells expressing mGlu1 E60H/N264H; assay type: cell-based; conditions: 10 μM metal ion or metal complex
T4 construct: expressed in transfected cells; host or cells: HEK293

mGlu1 P57H/N264H mutant = biological target: T5, mGlu1 P57H/N264H mutant (Rattus norvegicus, UniProt P23385, N264H/P57H); experiment: Fura-2 Ca2+ imaging in HEK293 cells expressing mGlu1 P57H/N264H; assay type: cell-based; conditions: 10 μM metal ion or metal complex
T5 construct: expressed in transfected cells; host or cells: HEK293

mGlu1 P58H/N264H mutant = biological target: T6, mGlu1 P58H/N264H mutant (Rattus norvegicus, UniProt P23385, N264H/P58H); experiment: Fura-2 Ca2+ imaging in HEK293 cells expressing mGlu1 P58H/N264H; assay type: cell-based; conditions: for Receptor activation ([Ca2+]i change, Δratio): 10 μM metal ion or metal complex; for Δratio of 3 µM Pd(bpy)-induced response, ave / Δratio of 10 µM glutamate-induced response, ave: n = 20
T6 construct: expressed in transfected cells; host or cells: HEK293
T6 sequence (P23385 19-1199 P58H/N264H): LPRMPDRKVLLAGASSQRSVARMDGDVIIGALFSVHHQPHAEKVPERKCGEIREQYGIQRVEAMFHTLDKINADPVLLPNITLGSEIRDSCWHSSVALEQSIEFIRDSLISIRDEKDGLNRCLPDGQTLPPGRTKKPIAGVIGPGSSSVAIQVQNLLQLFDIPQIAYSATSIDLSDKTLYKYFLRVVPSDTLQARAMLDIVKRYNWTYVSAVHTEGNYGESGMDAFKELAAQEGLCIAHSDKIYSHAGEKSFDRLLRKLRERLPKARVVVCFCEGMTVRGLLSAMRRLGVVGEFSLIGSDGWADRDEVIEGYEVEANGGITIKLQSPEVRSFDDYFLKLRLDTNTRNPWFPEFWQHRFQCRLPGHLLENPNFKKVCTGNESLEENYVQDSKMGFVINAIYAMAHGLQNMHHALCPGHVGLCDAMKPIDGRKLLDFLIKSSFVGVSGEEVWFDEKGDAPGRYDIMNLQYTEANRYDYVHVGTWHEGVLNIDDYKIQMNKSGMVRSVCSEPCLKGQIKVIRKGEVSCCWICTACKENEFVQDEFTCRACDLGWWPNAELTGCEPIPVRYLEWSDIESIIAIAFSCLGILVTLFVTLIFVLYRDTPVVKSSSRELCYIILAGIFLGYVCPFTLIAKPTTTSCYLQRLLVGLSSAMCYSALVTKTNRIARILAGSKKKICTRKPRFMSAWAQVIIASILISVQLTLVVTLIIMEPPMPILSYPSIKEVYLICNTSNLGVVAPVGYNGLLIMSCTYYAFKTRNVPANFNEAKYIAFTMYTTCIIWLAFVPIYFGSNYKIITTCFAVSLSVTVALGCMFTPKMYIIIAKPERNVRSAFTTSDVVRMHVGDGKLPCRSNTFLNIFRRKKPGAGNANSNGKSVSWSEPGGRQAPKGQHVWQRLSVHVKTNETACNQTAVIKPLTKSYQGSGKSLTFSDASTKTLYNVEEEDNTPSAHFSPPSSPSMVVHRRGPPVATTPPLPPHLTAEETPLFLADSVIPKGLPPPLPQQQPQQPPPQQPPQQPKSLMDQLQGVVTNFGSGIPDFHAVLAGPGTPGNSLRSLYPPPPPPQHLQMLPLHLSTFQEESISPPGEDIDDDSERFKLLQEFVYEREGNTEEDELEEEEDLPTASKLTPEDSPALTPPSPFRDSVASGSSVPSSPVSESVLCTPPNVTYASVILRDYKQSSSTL

T2 sequence (P23385 19-1199 K61H/N264H): as the sequence (P23385 19-1199 P58H/N264H) above, with H40P, K43H counted along it
T5 sequence (P23385 19-1199 P57H/N264H): as the sequence (P23385 19-1199 P58H/N264H) above, with P39H, H40P counted along it
T1 sequence (P23385 19-1199 N264H): as the sequence (P23385 19-1199 P58H/N264H) above, with H40P counted along it
T3 sequence (P23385 19-1199 A59H/N264H): as the sequence (P23385 19-1199 P58H/N264H) above, with H40P, A41H counted along it
T4 sequence (P23385 19-1199 E60H/N264H): as the sequence (P23385 19-1199 P58H/N264H) above, with H40P, E42H counted along it

Row | Compound | Effect of pre-treated inhibitor on 10 µM Pd(bpy)-induced Ca2+ responses (mGlu1(N264H) mutant) | Receptor activation ([Ca2+]i change, Δratio) (mGlu1 K61H/N264H mutant) | Receptor activation ([Ca2+]i change, Δratio) (mGlu1 A59H/N264H mutant) | Receptor activation ([Ca2+]i change, Δratio) (mGlu1 E60H/N264H mutant) | Receptor activation ([Ca2+]i change, Δratio) (mGlu1 P57H/N264H mutant) | Receptor activation ([Ca2+]i change, Δratio) (mGlu1 P58H/N264H mutant) | Receptor activation (Ca2+ response, Δratio) (mGlu1(N264H) mutant) | Ca2+ response to Pd complex, individual cells #1-#20 (Fig.4e) (mGlu1(N264H) mutant) | also measured
1 | COc1ccc2c(c1)CC[C@@H]1[C@@H]2CC[C@]2(C)[C@@H](NCCCCCCN3C(=O)C=CC3=O)CC[C@@H]12 [U73122, reference compound] | suppressed |  |  |  |  |  |  |  | Effect of inhibitor on 30 µM Pd(bpy)-induced [Ca2+]i elevation (primary cortical neurons): suppressed by neither
2 | [Zn+2] [Zn^2+, reference compound] |  | failed to activate | failed to activate | failed to activate | failed to activate | failed to activate |  |  | 
3 | OCc1ccnc(-c2cc(CO)ccn2)c1.[Cl][Pd][Cl] [Pd(OH-bpy)] |  |  |  |  |  |  | successfully activated | 0.09363 and -0.01751 and 0.927 and 0.3494 and 0.8377 and 0.7197 and 0.003631 and 0.04434 and -0.01218 and -0.01678 and 1.414 and 0.5875 and -0.01008 and 0.646 and 0.8168 and 0.6391 and 0.4133 and 1.082 and 0.03592 and 1.1834 | Ca2+ response, concentration dependence (Fig.4f) (mGlu1(N264H) mutant; 0.01 µM Pd complex): -0.02066; Ca2+ response, concentration dependence (Fig.4f) (mGlu1(N264H) mutant; 0.03 µM Pd complex): 0.003658; Ca2+ response, concentration dependence (Fig.4f) (mGlu1(N264H) mutant; 0.1 µM Pd complex): 0.0176; Ca2+ response, concentration dependence (Fig.4f) (mGlu1(N264H) mutant; 0.3 µM Pd complex): 0.1704; Ca2+ response, concentration dependence (Fig.4f) (mGlu1(N264H) mutant; 1 µM Pd complex): 0.2068; Ca2+ response, concentration dependence (Fig.4f) (mGlu1(N264H) mutant; 3 µM Pd complex): 0.4989; Ca2+ response, concentration dependence (Fig.4f) (mGlu1(N264H) mutant; 10 µM Pd complex): 0.5148; Ca2+ response, concentration dependence (Fig.4f) (mGlu1(N264H) mutant; 30 µM Pd complex): 0.5694; pEC50 (mGlu1(N264H) mutant; HEK293 cells, Fura-2, read-out: EC50, Ca2+ response (Δratio)): 5.96
4 | OCCOCCOCc1ccnc(-c2cc(COCCOCCO)ccn2)c1.[Cl][Pd][Cl] [Pd(EG-bpy)] |  |  |  |  |  |  | weakened responses | -0.02498 and -0.009 and -0.01094 and -0.001385 and -0.02155 and -0.01075 and -0.019 and 0.05131 and 0.02474 and 0.01748 and 0.01646 and -0.03188 and 0.7968 and -0.03567 and 0.2621 | 
5 | C=C1C(=O)NC(C)C(=O)N(C)C(C)C(=O)NC(C(OC(=O)C(NC(C)=O)C(O)C(C)C)C(C)C)C(=O)N(C)C(C(C)OC)C(=O)OC(C)C(NC(C)=O)C(=O)OC(Cc2ccccc2)C(=O)N1C (centres unmarked) [YM-254890, reference compound] (Ac-T[PhLac][NMeDha]A[NMeA][X1][NMeT](Me); ester 1-C; configuration not given here) | suppressed |  |  |  |  |  |  |  | 
6 | Cc1cc(C(=O)O)ccc1[C@H](N)C(=O)O [LY367385, reference compound] | inhibited |  |  |  |  |  |  |  | Effect of inhibitor on 30 µM Pd(bpy)-induced [Ca2+]i elevation (primary cortical neurons): suppressed by neither; Effect on Pd(bpy)-induced Ca2+ responses (mGlu1 P58H/N264H mutant; 10 μM LY367385, 3 µM Pd(bpy)): inhibited; Δratio of 3 µM Pd(bpy)-induced response, ave (mGlu1 P58H/N264H mutant; [LY367385] 0.1 µM): 0.1859; Δratio of 10 µM glutamate-induced response, ave (mGlu1 P58H/N264H mutant; [LY367385] 0.1 µM): 0.243; Δratio of 3 µM Pd(bpy)-induced response, ave (mGlu1 P58H/N264H mutant; [LY367385] 0.3 µM): 0.1915; Δratio of 10 µM glutamate-induced response, ave (mGlu1 P58H/N264H mutant; [LY367385] 0.3 µM): 0.2897; Δratio of 3 µM Pd(bpy)-induced response, ave (mGlu1 P58H/N264H mutant; [LY367385] 1 µM): 0.262; Δratio of 10 µM glutamate-induced response, ave (mGlu1 P58H/N264H mutant; [LY367385] 1 µM): 0.3662; Δratio of 3 µM Pd(bpy)-induced response, ave (mGlu1 P58H/N264H mutant; [LY367385] 3 µM): 0.1837; Δratio of 10 µM glutamate-induced response, ave (mGlu1 P58H/N264H mutant; [LY367385] 3 µM): 0.2021; Δratio of 3 µM Pd(bpy)-induced response, ave (mGlu1 P58H/N264H mutant; [LY367385] 10 µM): 0.007225; Δratio of 10 µM glutamate-induced response, ave (mGlu1 P58H/N264H mutant; [LY367385] 10 µM): 0.09778; Δratio of 3 µM Pd(bpy)-induced response, ave (mGlu1 P58H/N264H mutant; [LY367385] 30 µM): 0.008008; Δratio of 10 µM glutamate-induced response, ave (mGlu1 P58H/N264H mutant; [LY367385] 30 µM): 0.0409; Δratio of 3 µM Pd(bpy)-induced response, ave (mGlu1 P58H/N264H mutant; [LY367385] 100 µM): 0.01163; Δratio of 10 µM glutamate-induced response, ave (mGlu1 P58H/N264H mutant; [LY367385] 100 µM): 0.05699; Effect on glutamate-induced Ca2+ responses (mGlu1 P58H/N264H mutant; pretreatment with LY367385, 10 µM glutamate): suppressed
7 | O=S(=O)([O-])CCCOCc1ccnc(-c2cc(COCCCS(=O)(=O)[O-])ccn2)c1.[Cl][Pd][Cl].[Na+].[Na+] [Pd(di-sulfo-bpy)] |  |  |  |  |  |  | failed to activate | 0.01072 and 0.008046 and 0.01006 and 0.04502 and 0.003731 and 0.0195 and 0.007615 and 0.1169 and -0.002485 and 0.009585 and 0.3142 and 0.02231 and 0.005731 and 0.02578 and 0.01671 | 
8 | [Cu+2] [Cu^2+, reference compound] |  | failed to activate | failed to activate | failed to activate | failed to activate | failed to activate |  |  | 
9 | [Ni+2] [Ni^2+, reference compound] |  | failed to activate | failed to activate | failed to activate | failed to activate | failed to activate |  |  | 
10 | [Cd+2] [Cd^2+, reference compound] |  | failed to activate | failed to activate | failed to activate | failed to activate | failed to activate |  |  | 
